Source: patent US6288110A, “Pharmaceutical compositions comprising disulfiram” (Yeda Research and Development Co Ltd., priority 1998, dated 2001)
Entries after “also recorded” stand apart in the source; their conditions may differ. Read-outs that look alike come from different tables or passages of the source.

Experiments:
[1] = system: C6 rat glioma cells; test: DNA synthesis (3H-thymidine incorporation) in C6 rat glioma cells; format: cell-based; settings: for IC (maximal): Rattus norvegicus
Protocol: C6 rat glioma cells were routinely cultured in DMEM supplemented with 5% FCS (Biological Industries, Israel), GPS (100 U/ml penicillin, […] streptomycin (Biological Industries, Israel) and 2 mM glutamine (Biolab Ltd. Israel)) and 125 μg/ml fungizone (Biolab Ltd, Israel).
C6 rat glioma cells were plated in 96-well plates (Nunc, Denmark) (5000 cells per well) in DMEM with 5% FCS. After 6 hours the cells were rinsed and incubated for 48 hours in serum free medium. 5% FCS or growth factors were then added to the cells for 24 hours (triplicates). ^3 H-methyl-thymidine (5μCi/ml) (Rotem Ind. Ltd., Israel) was added to the cells for the last 14 hours. The cells were rinsed with 100 μl methanol for 10 minutes, followed by 200 μl 5% trichloroacetic acid, and then rinsed and lysed with 150 μl 0.3M NaOH. Radioactive thymidine incorporated into the DNA was determined for 1 min with 3 ml scintillation liquid (ULTIMA GOLD Packard) in a β-counter. DNA synthesis assays were performed in triplicates.
Disulfiram was prepared in 0.1 mM stock solutions in DMSO. Control samples were incubated with the appropriate concentration of DMSO. Inhibition was calculated as percentage of DNA synthesis of control.
To determine whether disulfiram acts directly on endothelial cells rather than on accessory cells such as macrophages and mast cells that can be responsible for the development of an angiogenic response in vivo, the effect of the drug on the growth of BCE cells was examined in vitro as described in section (c) of "Materials and Methods" above. DNA synthesis in BCE cells was measured in presence of increasing concentrations of disulfiram incubated for 24 hours with the cells. […] Maximal inhibitory activity (80%) for BSMC was at 0.5-1 μM disulfiram, while maximal inhibitory activity for C6 glioma cells or BALB/MK keratinocytes was at concentrations 10 fold higher (2-3 μM) than those for endothelial cells (0.2-0.5 μM).
To examine the time course of the effect of disulfiram and whether the effect was reversible, cells were incubated with disulfiram for various periods of time (1, 2, 4 and 24 hours), then washed away and DNA synthesis was determined. One to 4 hours of exposure to disulfiram were enough to induce maximal inhibitory effect at concentrations ranging from 0.5 μM for BCE cells (FIG. 3A) to 5 μM for BALB/MK keratinocytes (FIG. 3C) and C6 glioma cells (FIG. 3D). […] BSMC were less sensitive as far as time course is concerned when incubated with 1 μM disulfiram. Following 4 hours of incubation with 1 μM disulfiram, DNA synthesis inhibition in BSMC reached only 50% (FIG. 3B). […]

[2] = system: normal mice; settings: cited from earlier work
[3] = cited from earlier work
[4] = system: C6 glioma cells; test: Cell rounding, C6 glioma cells; format: cell-based, rat; settings: 2 μM
[5] = system: other tissues; test: Tissue damage on systemic administration; settings: 25-60 μg/mouse systemically
[6] = system: liver tumors; settings: dimethyl- or diethylnitrosamine, rats; cited from earlier work
[7] = system: tumor progression from papilloma to squamous cell carcinoma; settings: murine skin multistage carcinogenesis model; cited from earlier work
[8] = system: BSMC; test: TUNEL assay for apoptosis, BSMC; format: cell-based, bovine; settings: 1 μM, 6 hours
Protocol: (§1) Cells were cultured on microscope slides for 48 hours in presence of growth media as described above, until reaching 40-50% confluency. Disulfiram was then added to the cells for 6 hours or for 20 hours in the case of BALB/MK keratinocytes, fixed with 4% paraformaldehyde and washed three times with PBS. Apoptosis was analyzed by the in situ TUNEL staining carried out as described (Wride, 1994). Briefly, microscope slides were incubated for 15 min in 2×SSC buffer at 60° C., washed in DDW and incubated with 20 μg/ml proteinase K (Boehringer Mannheim) for 15 min at room temperature. After a wash with DDW, endogenous peroxidases were inactivated by incubating the slides with 2% H2 O2 in PBST (PBS with 0.05% Tween 20) for 10 min at room temperature. Slides were then incubated in TdT buffer (Boehringer Mannheim) for 5 min at room temperature, and a reaction mixture containing 5×TdT buffer and 1 μl biotin-21-dUTP (Clontech, 1 mM stock) and 8 units of the TdT enzyme (Boehringer Mannheim) in total volume of 50 μl was subsequently added. The reactions were carried out at 37° C. for 1.5 hr in a humid chamber. The slides were washed in 2×SSC, DDW and finally with PBS and covered with 10% skim milk in PBST for 15 min. […]

[9] = system: 3T3 fibroblasts; test: Cell rounding, 3T3 fibroblasts; format: cell-based; settings: 1 μM
[10] = system: cisplatin nephrotoxicity; settings: humans; cited from earlier work
[11] = system: toxic side effects of HECNU; settings: rats; cited from earlier work
[12] = system: capillary endothelial (BCE) cells; test: TUNEL assay for apoptosis, BCE cells; format: cell-based, bovine; settings: 1 μM, 6 hours
Protocol: as §1

[13] = system: rats; settings: 0.05% in diet for 2 years; cited from earlier work
[14] = system: ifosfamide- and cyclophosphamide-induced urotoxicity; settings: administered simultaneously with ifosfamide or cyclophosphamide, mice; cited from earlier work
[15] = system: endothelial cells; test: Cell rounding, capillary endothelial cells; format: cell-based, bovine
Protocol: Capillary endothelial cells were grown during 48 hours to 40-50% confluency and disulfiram was then added to the cells for 20 hours as described in section (g) of "Materials and Methods" above. […] The abundance of apoptotic cells was dose-dependent.

Q: For `CCN(CC)C(=S)SSC(=S)N(CC)CC` [disulfiram, Bis(diethylthiocarbamoyl) disulfide], which “maximal inhibitory concentration relative to endothelial cells, fold higher” value ([1]; C6 glioma vs endothelial cells (0.2-0.5 μM)) is on record?
A: Its value is 10 fold.

Q: And the “persistence of inhibitory effect after short exposure” value ([1]; C6 glioma, 24 hours following short exposure)?
A: The value was “inhibitory effect seemed to be maintained”.

Q: What about the IC (maximal) ([1]; C6 glioma cells, read-out: concentration of maximal inhibitory activity (DNA synthesis)) of the same compound?
A: The IC (maximal) was 2 to 3 µM.

Q: What about the IC (maximal) ([1]; C6 glioma, 1 to 4 hours of exposure, washed, read-out: concentration inducing maximal inhibitory effect on DNA synthesis, short exposure) of the same compound?
A: Its IC (maximal) is 5 µM.

Q: What about the toxic dose [2] of the same compound?
A: Its toxic dose is 6-10 mg/mouse/day.

Q: And the solubility in water [3]?
A: The solubility in water was “soluble in water”.

Q: And the “solubility in methanol, acetone or chloroform” value ([3]; hydrophobic solutions)?
A: Its value is “solubilizes better”.

Q: And the cell rounding [4]?
A: Its cell rounding is “did not change their shape to the rounded form”.

Q: What about the “damage in other tissues” value [5] of the same compound?
A: The value was “no evidence for damage in other tissues”.

Q: What about the “interference with induction of liver tumors” value [6] of the same compound?
A: The value was “interfere with induction of cancer”.

Q: And the “inhibition of tumor progression” value [7]?
A: The value was “inhibit tumor progression”.

Q: And the “apoptosis by TUNEL method” value [8]?
A: The value was “not labeled; also recorded: did not induce”.

Q: What about the cell rounding [9] of the same compound?
A: Its cell rounding is “did not change their shape to the rounded form”.

Q: And the “protection against cisplatin nephrotoxicity” value [10]?
A: The value was “did not show any protection”.

Q: And the “effect on anti-tumor potency of HECNU” value [11]?
A: Its value is “without inhibiting its anti-tumor potency”.

Q: And the “protection against toxic side effects of HECNU” value [11]?
A: Its value is “protected rats”.

Q: And the “apoptosis by TUNEL method” value [12]?
A: Its value is “labeled; also recorded: induced into apoptosis”.

Q: And the “increase of any tumor type” value [13]?
A: The value was “did not increase any tumor type”.

Q: And the protection against urotoxicity [14]?
A: The protection against urotoxicity was “protect mice”.

Q: And the cell rounding [15]?
A: The cell rounding was “quickly became rounded”.
